Source: patent US20160251289A1, “USE OF ALKANE SULFONIC ACID FOR PREPARING PHENOLIC ALCOHOL” (ARKEMA FRANCE, priority 2013, published 2016)
Where two headings read alike, the source gives them in different places.

How the values were obtained:
[1] = for Solubility (mass %): phenol/acetone/water (50/50/5) weight mixture; for times more soluble than potassium sulfate: phenol/acetone/water (50/50/5)
Experimental: 25 g of test solvent are placed in a 50 mL three-necked flask equipped with a condenser, a thermometer and a magnetic stirrer. The solvent is brought to the desired temperature and the alkanesulfonic acid salt is then added portionwise until cloudiness appears, indicating saturation of the medium.
The solubility is calculated in the following manner:
% salt solubility=m/(m+M)×100
with m=mass of dissolved salt, M=mass of solvent
1. Solubility of the Salts in a Phenol/Acetone/Water (50/50/5) Weight Mixture:
A first measurement is taken at 20° C. at atmospheric pressure, and a second measurement is then taken at 60° C. […] 1.1 Potassium Salts

[2] = for Solubility (mass %): phenol/water (95/5) weight mixture; for times more soluble than potassium sulfate: phenol/water (95/5)
Experimental: Solubility of the Salts in a Phenol/Water (95/5) Weight Mixture:
A first measurement is taken at 55° C. at atmospheric pressure, and a second measurement is then taken at 100° C.

SMILES: CS(=O)(=O)[O-].[K+] [CH3SO3K, potassium methanesulfonate]
- Solubility (mass %) ([1]; 20° C., atmospheric pressure): 0.80% mass %
- Solubility (mass %) ([1]; 60° C.): 0.80% mass %
- times more soluble than potassium sulfate ([1]; at 20° C.): more than 6.7 times
- times more soluble than potassium sulfate ([1]; at 60° C.): more than 6.7 times
- Solubility (mass %) ([2]; 55° C., atmospheric pressure): 1.90% mass %
- Solubility (mass %) ([2]; 100° C.): 2.40% mass %
- times more soluble than potassium sulfate ([2]; printed as at 20° C.): 15 times
- times more soluble than potassium sulfate ([2]; printed as at 60° C.): 8 times
